# In article PMC9250534, “Synthesis and direct assay of large macrocycle diversities by combinatorial late-stage modification at picomole scale” (Nature Communications, 2022):
# Target: MDM2 (Homo sapiens, UniProt Q00987)
# Test: MDM2 binding screen of Libraries 3 and 4: displacement of fluorescent probe F-M8 at 750 nM macrocycle
# Conditions: Panel b, Library 3: 63 scaffolds combinatorially acylated with 15 carboxylic acids at 30 picomole scale; displacement of fluorescent peptide probe; macrocycle 750 nM
# Summary of the method: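 Cyclic peptide scaffolds were acylated in DMSO with carboxylic acids (20 equiv.), HBTU and DABCO for 6 h at room temperature. Reactions were quenched overnight in 100 mM Tris-Cl pH 7.4, 0.01% Tween20. The fluorescein conjugate was also competed with nutlin-3a.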
# Sequence of MDM2 (Q00987 whole entry): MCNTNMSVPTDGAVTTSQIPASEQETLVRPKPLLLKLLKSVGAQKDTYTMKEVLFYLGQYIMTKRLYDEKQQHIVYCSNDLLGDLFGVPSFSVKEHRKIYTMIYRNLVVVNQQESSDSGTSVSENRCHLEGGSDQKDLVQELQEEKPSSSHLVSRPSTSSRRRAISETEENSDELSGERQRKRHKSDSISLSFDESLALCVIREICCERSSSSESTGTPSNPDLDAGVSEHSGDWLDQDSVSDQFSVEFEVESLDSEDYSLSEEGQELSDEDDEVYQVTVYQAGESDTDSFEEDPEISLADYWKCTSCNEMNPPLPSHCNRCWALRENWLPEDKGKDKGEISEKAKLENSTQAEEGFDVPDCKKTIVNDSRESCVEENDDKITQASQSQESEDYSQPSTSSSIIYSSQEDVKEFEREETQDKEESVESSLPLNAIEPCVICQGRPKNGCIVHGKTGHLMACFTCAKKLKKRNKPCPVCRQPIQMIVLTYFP
row,SMILES,fraction of fluorescent probe displaced
1,Cn1cc(C[C@@H]2NC(=O)[C@@H](CNC(=O)c3ccc4ccccc4c3)NC(=O)C3(CC3)CNC(=O)CCSSCCNC2=O)c2ccccc21 [X-Amcp-D-Dap-Me-Trp + Acid 107],0.018
2,Cn1cc(CC2NC(=O)C(CNC(=O)C3CC3c3ccccc3)NC(=O)C3(CC3)CNC(=O)CCSSCCNC2=O)c2ccccc21 (centres unmarked) [X-Amcp-Dap-Me-Trp + Acid 105],-0.021
3,O=C(NCC1NC(=O)C2CN(CCO2)C(=O)CCSSCCNC(=O)C(Cc2cccc3ccccc23)NC1=O)c1ccc(Cl)cc1 (stereo not drawn) [X-Cop-Dap-1-NaI + Acid 25],-0.012
4,CN1C(=O)[C@H](CNC(=O)CCS(=O)(=O)c2ccccc2)NC(=O)C2(CC2)CNC(=O)CCSSCCNC(=O)[C@@H]1Cc1c[nH]c2ccccc12 [X-Amcp-Dap-NMe-Trp + Acid 114],0.055
5,O=C1CCSSCCNC(=O)[C@@H](Cc2c[nH]c3ccccc23)NC(=O)[C@@H](CNC(=O)c2cccc(Oc3ccccc3)c2)NC(=O)C2(CC2)CN1 [X-Amcp-D-Dap-D-Trp + Acid 111],-0.019
6,O=C1CCSSCCNC(=O)[C@H](Cc2c[nH]c3cc(Cl)ccc23)NC(=O)CN(CCNC(=O)C2COc3ccccc3O2)C(=O)C2(CC2)CN1 (some centres unmarked) [X-Amcp-N-Aeg-Cl-Trp + Acid 115],0.00133
7,CN1C(=O)[C@@H](CNC(=O)c2ccc3ccccc3c2)NC(=O)C2(CC2)CNC(=O)CCSSCCNC(=O)[C@@H]1Cc1c[nH]c2ccccc12 [X-Amcp-D-Dap-NMe-Trp + Acid 107],0.031
8,O=C1CCSSCCNC(=O)[C@H](Cc2cccc3ccccc23)NC(=O)[C@@H](CNC(=O)c2ccc3ccccc3c2)NC(=O)C2(CC2)CN1 [X-Amcp-D-Dap-1-NaI + Acid 107],-0.00844
9,O=C1CCSSCCNC(=O)[C@H](Cc2ccc3ccccc3c2)NC(=O)CN(CCNC(=O)c2ccc(Cl)s2)C(=O)C2(CC2)CN1 [X-Amcp-N-Aeg-2-Nal + Acid 14],-0.032
10,O=C(/C=C/c1ccc(OCc2ccccc2)cc1)NC[C@H]1NC(=O)[C@@H]2CN(CCO2)C(=O)CCSSCCNC(=O)[C@H](Cc2c[nH]c3cc(Cl)ccc23)NC1=O [X-Cop-D-Dap-Cl-Trp + Acid 110],0.035
11,O=C1CCSSCCNC(=O)C(Cc2c[nH]c3ccccc23)NC(=O)CN(CCNC(=O)C2CC2c2ccccc2)C(=O)C2(CC2)CN1 (centres unmarked) [X-Amcp-N-Aeg-Trp + Acid 105],-0.015
12,O=C(/C=C/c1ccc(OCc2ccccc2)cc1)NC[C@@H]1NC(=O)C2(CC2)CNC(=O)CCSSCCNC(=O)[C@H](Cc2c[nH]c3ccccc23)NC1=O [X-Amcp-Dap-Trp + Acid 110],0.015
13,O=C(CCS(=O)(=O)c1ccccc1)NC[C@H]1NC(=O)[C@@H]2CN(CCO2)C(=O)CCSSCCNC(=O)[C@H](Cc2ccc3ccccc3c2)NC1=O [X-Cop-D-Dap-2-Nal + Acid 114],-0.00533

# Second part, the molecule after the results:
row,fraction of fluorescent probe displaced,SMILES
1,-0.012,O=C1CN(CCNC(=O)c2ccc(Cl)s2)C(=O)[C@@H]2CN(CCO2)C(=O)CCSSCCNC(=O)[C@@H](Cc2c[nH]c3ccccc23)N1 [X-Cop-N-Aeg-D-Trp + Acid 14]
2,0.00133,CN1C(=O)[C@@H](CNC(=O)c2ccc(Cl)cc2)NC(=O)[C@H]2CCCN(C2)C(=O)CCSSCCNC(=O)[C@@H]1Cc1c[nH]c2ccccc12 [X-Nip-D-Dap-NMe-Trp + Acid 25]
3,0.015,CN1C(=O)CN(CCNC(=O)/C=C/c2ccc3ccccc3c2)C(=O)[C@@H]2CN(CCO2)C(=O)CCSSCCNC(=O)[C@@H]1Cc1c[nH]c2ccccc12 [X-Cop-N-Aeg-NMe-Trp + Acid 112]
4,0.021,O=C(NC[C@H]1NC(=O)[C@H]2CCCN(C2)C(=O)CCSSCCNC(=O)[C@H](Cc2cccc3ccccc23)NC1=O)C1COc2ccccc2O1 (stereo partly drawn) [X-Nip-D-Dap-1-NaI + Acid 115]
5,0.221,O=C(/C=C/c1ccc2ccccc2c1)NC[C@@H]1NC(=O)[C@H]2CCCN(C2)C(=O)CCSSCCNC(=O)[C@H](Cc2c[nH]c3cc(Cl)ccc23)NC1=O [X-Nip-Dap-Cl-Trp + Acid 112]
6,0.00455,Cn1cc(C[C@@H]2NC(=O)CN(CCNC(=O)c3ccc4ccccc4c3)C(=O)[C@@H]3CN(CCO3)C(=O)CCSSCCNC2=O)c2ccccc21 [X-Cop-N-Aeg-Me-Trp + Acid 107]
7,-0.00533,CN1C(=O)CN(CCNC(=O)CCS(=O)(=O)c2ccccc2)C(=O)[C@H]2CCCN(C2)C(=O)CCSSCCNC(=O)[C@@H]1Cc1c[nH]c2ccccc12 [X-Nip-N-Aeg-NMe-Trp + Acid 114]
8,0.018,O=C(/C=C/c1ccncc1)NC[C@H]1NC(=O)[C@H]2CCCN(C2)C(=O)CCSSCCNC(=O)[C@H](Cc2c[nH]c3cc(Cl)ccc23)NC1=O [X-Nip-D-Dap-Cl-Trp + Acid 106]
9,0.075,O=C(NC[C@@H]1NC(=O)[C@H]2CCCN(C2)C(=O)CCSSCCNC(=O)[C@H](Cc2c[nH]c3cc(Cl)ccc23)NC1=O)c1cccc(Oc2ccccc2)c1 [X-Nip-Dap-Cl-Trp + Acid 111]
10,0.015,O=C(CCS(=O)(=O)c1ccccc1)NCCN1CC(=O)NC(Cc2cccc3ccccc23)C(=O)NCCSSCCC(=O)N2CCOC(C2)C1=O (centres unmarked) [X-Cop-N-Aeg-1-NaI + Acid 114]
11,0.00133,CN1C(=O)CN(CCNC(=O)c2ccc(Cl)s2)C(=O)[C@H]2CCCN(C2)C(=O)CCSSCCNC(=O)[C@@H]1Cc1c[nH]c2ccccc12 [X-Nip-N-Aeg-NMe-Trp + Acid 14]
12,0.00133,CC(Oc1cccc(Cl)c1)C(=O)NCC1NC(=O)C2CCCN(C2)C(=O)CCSSCCNC(=O)C(Cc2c[nH]c3ccccc23)N(C)C1=O (mixture of isomers) [X-Nip-D-Dap-NMe-Trp + Acid 113]
13,0.044,O=C(NC[C@@H]1NC(=O)[C@H]2CCCN(C2)C(=O)CCSSCCNC(=O)[C@@H](Cc2c[nH]c3ccccc23)NC1=O)c1ccc2ccccc2c1 [X-Nip-Dap-D-Trp + Acid 107]
14,0.00133,CC(Oc1cccc(Cl)c1)C(=O)NCCN1CC(=O)N[C@@H](Cc2ccc3ccccc3c2)C(=O)NCCSSCCC(=O)N2CCC[C@@H](C2)C1=O (some centres unmarked) [X-Nip-N-Aeg-2-Nal + Acid 113]

# Same assay, conditions: Panel c, Library 4: best nine scaffolds and 15 additional carboxylic acids; displacement of fluorescent probe
row,SMILES,fraction of fluorescent probe displaced
1,CCOc1ccc(C=CC(=O)NCC2NC(=O)C3CN(CCO3)C(=O)CCSSCCNC(=O)C(Cc3cn(C)c4ccccc34)NC2=O)cc1 (stereo not drawn) [X-Cop-Dap-Me-Trp + Acid 117],0.052
2,C/C(=C\c1ccccc1)C(=O)NC[C@@H]1NC(=O)[C@@H]2CN(CCO2)C(=O)CCSSCCNC(=O)[C@H](Cc2c[nH]c3cc(Cl)ccc23)NC1=O [X-Cop-Dap-Cl-Trp + Acid 123],0.012

# Further lines, results first:
row,fraction of fluorescent probe displaced,SMILES
1,-0.013,CC(=Cc1ccccc1)C(=O)NCC1NC(=O)C2CCCN(C2)C(=O)CCSSCCNC(=O)C(Cc2cccc3ccccc23)NC1=O (stereo not drawn) [X-Nip-Dap-1-NaI + Acid 123]
2,0.044,CC(=Cc1ccccc1)C(=O)NCC1NC(=O)C2CCCN(C2)C(=O)CCSSCCNC(=O)C(Cc2c[nH]c3ccccc23)NC1=O (stereo not drawn) [X-Nip-Dap-Trp + Acid 123]
3,0.118,O=C(C=Cc1cccc(C(F)(F)F)c1)NCC1NC(=O)C2CN(CCO2)C(=O)CCSSCCNC(=O)C(Cc2c[nH]c3ccccc23)NC1=O (stereo not drawn) [X-Cop-Dap-Trp + Acid 122]
